Experiments:
[1] = system: Spirulina platensis; test: Delayed luminescence of S. platensis exposed to simazine, fitted by Formula (1); assay type: cell-based; design: Fitting formula value c3 / Fitting formula value a1 / Fitting formula value b1 / Fitting formula value c1 / Fitting formula value a2 / Fitting formula value b2 / Fitting formula value c2 / Fitting formula value a3 / Fitting formula value b3: unit not given here; conditions: for luminescence amount of delayed luminescence, exposed vs not exposed: 15 minutes after exposure (FIG. 10); for Fitting formula value a1 / Fitting formula value a2 / Fitting formula value a3 / Fitting formula value b1 / Fitting formula value b2 / Fitting formula value b3 / Fitting formula value c1 / Fitting formula value c2 / Fitting formula value c3: 15 minutes after exposure
Description: In the present example, the measurement of delayed luminescence was carried out as follows. 2.5 mL of an S. platensis cell suspension, adjusted to have an absorbance at 660 nm of 0.05 in a general, 10×10 mm spectrometric cell, was exposed to simazine of any of various concentrations and left to stand for 15 minutes under a white fluorescent lamp of a light amount of 50 μmol·m−2·s−1. Thereafter, inside the measuring device 10, a red light (660 nm) of approximately 300 μmol·m−2·s−1 was illuminated for 10 seconds from the light source 18 as the excitation light for making delayed luminescence be emitted and then the delayed luminescence emitted after extinguishing of the excitation light was recorded for 50 seconds at 0.1 second intervals.
In the present example, the above-described Formula (1) was used for fitting. As examples for description of the fitting results, the measurement result for the “Not exposed” case is shown in FIG. 11A and a graph of the results of fitting to the measurement data are shown in FIG. 11B. In FIG. 11B, f1(t), f2(t), and f3(t) are respectively the first function, the second function, and the third function in Formula (1). From FIG. 11, it can be understood that the delayed luminescence measurement data can be fitted by a plurality of hill-shaped functions.
By the fitting, the function coefficients, ai, bi, and ci (i=1, 2, 3) are determined.

[2] = system: Pseudokircheneriella subcapitata; test: Algae growth inhibition, area under growth curve, P. subcapitata; assay type: cell-based; conditions: 72 hours after exposure, various simazine concentrations (FIG. 13)
Description: In the present embodiment, the area under the growth curve is the area under the growth curve obtained by culturing 6 mL of an P. subcapitata cell suspension, adjusted to have an absorbance at 750 nm of 0.01, under a white fluorescent lamp (50 μmol·m−2·s−1) for 72 hours after chemical substance exposure and measuring, every 24 hours, the cell density as the absorbance at 750 nm.

[3] = simazine exposure concentration 5 μg/L
[4] = simazine exposure concentration 25 μg/L
[5] = simazine exposure concentration 50 μg/L
[6] = simazine exposure concentration 100 μg/L

CCNc1nc(Cl)nc(NCC)n1 [Simazine, simazine]
variation of evaluation value c3 with simazine exposure concentration ([1]; S. platensis (FIG. 12)): decreases in accordance with the simazine exposure concentration | luminescence amount of delayed luminescence, exposed vs not exposed ([1]; early time period (near 0 seconds) of time after excitation): increases | luminescence amount of delayed luminescence, exposed vs not exposed ([1]; later time period (5 seconds onward) after excitation): decreases | Fitting formula value a1 [1, 3]: 0.2 | Fitting formula value a2 [1, 3]: 0.01 | Fitting formula value a3 [1, 3]: 0.006 | Fitting formula value b1 [1, 3]: −0.5 | Fitting formula value b2 [1, 3]: −0.5 | Fitting formula value b3 [1, 3]: 22 | Fitting formula value c1 [1, 3]: 4.5 | Fitting formula value c2 [1, 3]: 3.5 | Fitting formula value c3 [1, 3]: 2.2 | Fitting formula value a1 [1, 4]: 0.2 | Fitting formula value a2 [1, 4]: 0.018 | Fitting formula value a3 [1, 4]: 0.005 | Fitting formula value b1 [1, 4]: −0.5 | Fitting formula value b2 [1, 4]: −0.5 | Fitting formula value b3 [1, 4]: 22 | Fitting formula value c1 [1, 4]: 4.8 | Fitting formula value c2 [1, 4]: 3.8 | Fitting formula value c3 [1, 4]: 1.6 | Fitting formula value a1 [1, 5]: 0.3 | Fitting formula value a2 [1, 5]: 0.02 | Fitting formula value a3 [1, 5]: 0.01 | Fitting formula value b1 [1, 5]: −0.5 | Fitting formula value b2 [1, 5]: −0.5 | Fitting formula value b3 [1, 5]: 21 | Fitting formula value c1 [1, 5]: 5 | Fitting formula value c2 [1, 5]: 3.8 | Fitting formula value c3 [1, 5]: 1.2 | Fitting formula value a1 [1, 6]: 0.4 | Fitting formula value a2 [1, 6]: 0.024 | Fitting formula value a3 [1, 6]: 0.02 | Fitting formula value b1 [1, 6]: −0.5 | Fitting formula value b2 [1, 6]: −0.5 | Fitting formula value b3 [1, 6]: 20 | Fitting formula value c1 [1, 6]: 5.5 | Fitting formula value c2 [1, 6]: 3.8 | Fitting formula value c3 [1, 6]: 0.7 | cell growth (area under the growth curve) [2]: inhibited according to the exposure concentration of simazine

Source: patent US20100159496A1, “EVALUATION METHOD FOR PHOTOSYNTHESIS SAMPLE, EVALUATION SYSTEM FOR PHOTOSYNTHESIS SAMPLE, AND EVALUATION PROGRAM FOR PHOTOSYNTHESIS SAMPLE” (HAMAMATSU PHOTONICS K.K., priority 2006, published 2010)
